Laboratory results published in PubChem BioAssay AID1159605 (The Scripps Research Institute Molecular Screening Center, 2016).
Active and inactive are the calls of the source.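 The calls were made as follows: active = IC50 of 10 µM or lower; inactive = IC50 above 10 µM.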

Biological target: Mitogen-activated protein kinase kinase kinase 5 (Homo sapiens) (UniProt Q99683)
Assay: MAP3K5 inhibition concentration-response curves – biochemical, AlphaScreen, MKK6 phosphorylation, dose response (AID 1159605);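 also: ASK1 phosphorylation of MKK6 substrate detected with anti-phospho-MKK6 antibody beads; inhibitors lower the luminescent signal by blocking MKK6 phosphorylation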
Conditions: ASK1 MKK6 phosphorylation, AlphaScreen luminescence

Chain of Mitogen-activated protein kinase kinase kinase 5 (Homo sapiens) (Q99683 whole entry, looked up): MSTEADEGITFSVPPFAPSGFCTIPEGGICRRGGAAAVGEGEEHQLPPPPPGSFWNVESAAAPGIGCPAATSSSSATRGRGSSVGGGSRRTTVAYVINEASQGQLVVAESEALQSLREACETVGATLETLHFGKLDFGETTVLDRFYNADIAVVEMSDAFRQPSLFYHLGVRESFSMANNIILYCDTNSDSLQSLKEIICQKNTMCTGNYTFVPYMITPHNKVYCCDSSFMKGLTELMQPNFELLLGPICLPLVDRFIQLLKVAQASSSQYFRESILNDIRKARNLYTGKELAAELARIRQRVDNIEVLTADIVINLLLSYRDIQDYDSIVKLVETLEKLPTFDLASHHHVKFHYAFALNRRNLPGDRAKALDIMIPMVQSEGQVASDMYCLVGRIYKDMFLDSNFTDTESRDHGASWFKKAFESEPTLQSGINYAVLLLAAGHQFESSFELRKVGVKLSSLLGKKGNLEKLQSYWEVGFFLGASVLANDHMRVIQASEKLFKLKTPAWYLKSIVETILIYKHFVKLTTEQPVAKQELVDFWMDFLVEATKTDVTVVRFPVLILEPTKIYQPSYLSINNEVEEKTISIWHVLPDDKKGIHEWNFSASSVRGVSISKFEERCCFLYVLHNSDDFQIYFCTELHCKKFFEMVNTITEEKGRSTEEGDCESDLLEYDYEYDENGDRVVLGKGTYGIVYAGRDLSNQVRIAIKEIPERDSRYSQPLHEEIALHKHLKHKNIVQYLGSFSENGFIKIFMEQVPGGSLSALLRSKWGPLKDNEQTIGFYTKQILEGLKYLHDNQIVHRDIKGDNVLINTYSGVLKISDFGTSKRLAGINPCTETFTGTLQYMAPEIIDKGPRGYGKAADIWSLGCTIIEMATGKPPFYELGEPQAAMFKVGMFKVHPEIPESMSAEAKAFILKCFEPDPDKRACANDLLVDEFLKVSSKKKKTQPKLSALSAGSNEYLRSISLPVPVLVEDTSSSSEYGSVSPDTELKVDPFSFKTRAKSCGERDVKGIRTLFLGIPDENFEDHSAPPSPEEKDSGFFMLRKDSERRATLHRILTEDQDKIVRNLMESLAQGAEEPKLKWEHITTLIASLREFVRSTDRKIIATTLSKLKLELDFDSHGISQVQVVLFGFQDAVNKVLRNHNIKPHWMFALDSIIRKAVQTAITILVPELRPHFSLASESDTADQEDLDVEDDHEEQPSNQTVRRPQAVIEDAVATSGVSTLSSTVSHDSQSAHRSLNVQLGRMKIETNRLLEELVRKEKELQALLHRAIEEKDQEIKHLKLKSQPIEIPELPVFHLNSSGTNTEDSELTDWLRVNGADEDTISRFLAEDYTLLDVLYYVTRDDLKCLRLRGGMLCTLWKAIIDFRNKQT

| SMILES | IC50 |
| --- | --- |
| NC(=O)c1ccc(-c2nc(NCc3cccc(C(F)(F)F)c3)c3ncn(-c4ccccc4)c3n2)cc1 | > 18 µM (inactive) |
| O=C(Nc1ccc(-c2ncnc3[nH]ccc23)cc1)C1COc2ccccc2O1 (stereo not drawn) | > 19.2 µM (inactive) |
| CN(C)c1cccc(Nc2nccc(NCc3cccc(C(F)(F)F)c3)n2)c1 | > 16.5 µM (inactive) |
| COc1ccc(CCNC(=O)c2ccnc(Nc3cccc(N(C)C)c3)c2)cc1 | > 20 µM (inactive) |
| Cc1cc(NCc2cccc(C(F)(F)F)c2)nc(Nc2cccc(N(C)C)c2)n1 | > 20.1 µM (inactive) |
| COc1ccc2c(c1)CC(C(=O)Nc1ccc(-c3cn[nH]c3)cc1OCCOCc1ccccc1)CO2 (stereo not drawn) | > 19.2 µM (inactive) |
| Cc1cc(Nc2ccc(N3CCOCC3)cc2)nc(N2CCc3ccccc3C2)n1 | inactive |
| FC(F)(F)c1ccc(Cn2cnc3c(Nc4ccc(N5CCOCC5)cc4)nc(NC4CCN(Cc5ccccc5)CC4)nc32)cc1 | inactive |
| CC(C)n1cnc2c(Nc3ccc(Oc4ccccc4)cc3)nc(N3CCOCC3)nc21 | inactive |
| FC(F)(F)c1ccc(Cn2cnc3c(Nc4ccc5c(c4)OCO5)nc(N4CCN(c5ccccn5)CC4)nc32)cc1 | > 20 µM (inactive) |
| CC(C)n1cnc2c(NC3CC3)nc(N3CCN(c4ccccn4)CC3)nc21 | inactive |
| Cc1cc(NCCc2ccc(O)cc2)nc(Nc2cccc(N(C)C)c2)n1 | inactive |
| c1ccc(-n2cnc3c(Nc4ccc(N5CCOCC5)cc4)nc(Nc4cccnc4)nc32)cc1 | > 15.9 µM (inactive) |
| O=C(Cc1cn(-c2ccc(Nc3nccc4ccccc34)nn2)c2ccccc12)Nc1ccc2c(c1)OCO2 | > 21.6 µM (inactive) |
| COc1cc(Nc2ccnc(Nc3cccc(N(C)C)c3)n2)cc(OC)c1OC | 6.84 µM |
| COc1cc(Nc2nc(N3CCc4ccccc4C3)nc3c2ncn3C(C)C)cc(OC)c1OC | > 20.1 µM (inactive) |
| Nc1cc(C2=C3C=CN=C3C(=O)NCC2)c(O)[nH]1 | > 19.2 µM (inactive) |
| CC(C)n1cnc2c(NCc3cccc(C(F)(F)F)c3)nc(Nc3ccc(N4CCOCC4)cc3)nc21 | 5.42 µM |
| c1ccc(OCCNc2nc(Nc3ccc(-n4ccnc4)cc3)nc3c2ncn3C2CCCCC2)cc1 | inactive |
| Cc1nc(C)n(-c2ccc(Nc3nccc(-c4cc(F)cc(-c5cn[nH]c5C)c4)n3)cc2)n1 | > 19.2 µM (inactive) |

| SMILES | IC50 |
| --- | --- |
| c1ccc(OCCNc2nc(N3CCN(Cc4ccc5c(c4)OCO5)CC3)nc3c2ncn3C2CCCCC2)cc1 | inactive |
| Cc1ccc(-c2ncn(-c3ccc(Nc4nccc(-c5cncc(N6CCOCC6)c5)n4)cc3)n2)cn1 | > 19.2 µM (inactive) |
| c1ccc(CN2CCC(Nc3nc(Nc4ccc(N5CCOCC5)cc4)nc4c3ncn4C3CCCCC3)CC2)cc1 | 7.91 µM |
| FC(F)(F)c1ccc(Cn2cnc3c(Nc4ccc5c(c4)OCO5)nc(Nc4ccccc4)nc32)cc1 | > 22 µM (inactive) |
| CC(=O)c1cccc(-c2nc(NCc3ccccc3)c3ncn(Cc4ccc(C(F)(F)F)cc4)c3n2)c1 | > 19.2 µM (inactive) |
| O=C(NC1CC1)c1ccc(-c2nc(NCc3cccc(C(F)(F)F)c3)c3ncn(-c4ccccc4)c3n2)cc1 | > 19.9 µM (inactive) |
| c1ccc(CCn2nc(-c3ccnc(Nc4ccc(N5CCOCC5)cc4)c3)cc2Nc2ccccc2)cc1 | > 19.2 µM (inactive) |
| c1ccc(CN2CCC(Nc3nc(Nc4ccc(N5CCOCC5)cc4)nc4nc[nH]c34)CC2)cc1 | > 19.7 µM (inactive) |
| CC(C)NC(=O)c1cccc(NC(=O)Nc2ccc(-c3ccnc4[nH]ccc34)cc2)c1 | > 19.2 µM (inactive) |
| COc1cc(Nc2nc(-c3ccc(C(N)=O)cc3)nc3c2ncn3C2CCCCC2)cc(OC)c1OC | inactive |
| COc1ccc(CCNc2nc(Nc3ccc(N4CCOCC4)cc3)nc3c2ncn3-c2ccsc2)cc1 | 9.53 µM |
| FC(F)(F)c1ccc(Cn2cnc3c(Nc4ccc5c(c4)OCO5)nc(NC4CCN(Cc5ccccc5)CC4)nc32)cc1 | > 20.5 µM (inactive) |
| Cc1ncn(-c2ccc(Nc3nccc(-c4cc(F)cc(-c5cn[nH]c5C)c4)n3)cc2)n1 | > 19.2 µM (inactive) |
| COc1cc2nc(Nc3cccc(N(C)C)c3)nc(NC3CC3)c2cc1OC | inactive |
| COc1ccc(CCNc2cc(C)nc(Nc3cccc(N(C)C)c3)n2)cc1 | 6.67 µM |
| Cc1cc(Nc2ccc3c(c2)OCO3)nc(Nc2cccc(N(C)C)c2)n1 | 5.32 µM |
| COc1ccc(-c2ncn(-c3ccc(Nc4nccc(-c5cc(C#N)cc(N6CCNCC6)c5)n4)cc3)n2)cn1 | > 19.2 µM (inactive) |
| CN(C)c1cc(F)cc(-c2ccnc(Nc3ccc(-n4cnc(N5CCC(O)CC5)n4)cc3)n2)c1 | > 19.2 µM (inactive) |
| CN(C)c1cccc(Nc2cc(Nc3ccccc3)ncn2)c1 | > 22.2 µM (inactive) |
| COc1ccc(CCNc2nc(Nc3ccc(N4CCOCC4)cc3)nc3c2ncn3-c2ccccc2)cc1 | 9.28 µM |

The next lines start with the values.

| IC50 | SMILES |
| --- | --- |
| > 20.1 µM (inactive) | COc1cc2nc(Nc3ccc(N4CCOCC4)cc3)nc(Nc3ccccc3)c2cc1OC |
| > 19.9 µM (inactive) | c1cc(-n2cnc3c(Nc4ccc(N5CCOCC5)cc4)nc(NCc4ccc5c(c4)OCO5)nc32)cs1 |
| inactive | c1cnc2ccc(Nc3nc(Nc4ccc(N5CCOCC5)cc4)c4[nH]cnc4n3)cc2c1 |
| > 24 µM (inactive) | COc1cc2nc(Nc3ccccc3)nc(Nc3ccc(N4CCOCC4)cc3)c2cc1OC |
| 6.57 µM | Cc1cc(NCc2cccc(C(F)(F)F)c2)nc(Nc2ccc(N3CCOCC3)cc2)n1 |
| 5.72 µM | c1cc(-n2cnc3c(Nc4ccc5c(c4)OCO5)nc(Nc4ccc(N5CCOCC5)cc4)nc32)cs1 |
| inactive | COc1cc2nc(Nc3cccc(N(C)C)c3)nc(Nc3ccccc3)c2cc1OC |
| inactive | c1cc(Nc2ccc3c(c2)OCO3)nc(Nc2ccc(N3CCOCC3)cc2)n1 |
| > 19.9 µM (inactive) | COc1cc2nc(NCc3ccc4c(c3)OCO4)nc(Nc3ccc(N4CCOCC4)cc3)c2cc1OC |
| inactive | Cc1cc(Nc2ccc(N3CCOCC3)cc2)nc(Nc2ccccc2)n1 |
| 8.17 µM | CCN(CC)c1nc(Nc2ccc(N3CCOCC3)cc2)nc(N2CCN(Cc3ccc4c(c3)OCO4)CC2)n1 |
| inactive | COc1cc(Nc2nc(Nc3ccc(N4CCOCC4)cc3)c3ncn(Cc4ccc(C(F)(F)F)cc4)c3n2)cc(OC)c1OC |
| inactive | COc1cc2nc(Nc3ccc(N4CCOCC4)cc3)nc(Nc3cc(OC)c(OC)c(OC)c3)c2cc1OC |
| > 16.8 µM (inactive) | Nc1nc(Nc2ccc(N3CCOCC3)cc2)cc(Nc2ccc3c(c2)OCO3)n1 |
| 5.36 µM | FC(F)(F)c1ccc(Cn2cnc3c(Nc4ccc5c(c4)OCO5)nc(Nc4ccc(N5CCOCC5)cc4)nc32)cc1 |
| inactive | COc1cc2nc(Nc3ccc(N4CCOCC4)cc3)nc(Nc3ccc4c(c3)OCO4)c2cc1OC |
| > 21.8 µM (inactive) | Cc1cnc(Nc2nc3ccccc3n2C)nc1Nc1ccc(N2CCOCC2)cc1 |
| > 13.8 µM (inactive) | c1nc(Nc2ccc(N3CCOCC3)cc2)c2[nH]c(N3CCN(Cc4ccc5c(c4)OCO5)CC3)nc2n1 |
